Several values for one entry are separate records, joined by “and”; a condition that tells them apart may be missing. Equal entries are not always repeated. Where two headings read alike, the source gives them in different places. Marks after values point to notes of the source that are not given here.
Experiments:
H. pylori strain 26695 = assay: Growth curve method / MIC in liquid culture, strain 26695; assay type: cell-based, Helicobacter pylori; details: strain 26695; for inhibition of bacterial growth: concentrations up to 5 mM
Protocol: (§1) The representative PNP inhibitor from H. pylori included in this study was immucillin A. The experiment was conducted using the growth curve method (two-fold serial dilutions in liquid medium). The tested H. pylori strains were cultured in Petri dishes with BHI solid medium supplemented with 10% FBS and 1% H. pylori Selective Supplement antibiotic kit, in anaerostats under microaerophilic conditions (5% 02, 10% CO2, 85% N2) at 37° C. for 3 days. Liquid culture of H. pylori was conducted overnight with shaking at 37° C. under microaerophilic conditions in BHI medium supplemented with 10% FBS and 1% H. pylori Selective Supplement antibiotic kit. Subsequently, for the essential experiment of determining the minimum inhibitory concentration (MIC), double strengthened liquid BHI medium was prepared, that is, supplemented with 20% FBS and a 2% set of H. pylori Selective Supplement antibiotics.
(§2) Bacterial proliferation inhibition experiments were carried out in 24-deep-well 2 ml flat-bottomed plates at a solution volume per well of 0.5 ml. In a single well, double strengthened (relative to the concentration planned for testing) solutions of the test inhibitor and double strengthened liquid BHI medium inoculated with H. pylori (10^4-10^5 CFU/ml in the final volume in the well, corresponding to the optical density of the culture OD600=0.05) were mixed together in a 1:1 ratio.
(§3) Kanamycin at a concentration of 25 μg/ml (Irie et al., 1997) was used as a positive control, while Mili-Q deionized water and BHI medium not inoculated with bacteria were used as negative controls. Plates were shaken at 37° C., under microaerophilic conditions. […] After 24 hours, the OD600 of samples containing the negative control, i.e. with Mili-Q deionized water, was about 1.2-1.4, corresponding to a bacterial concentration of about […].
(§4) In addition, the method proposed by Knezevic et al. (2018) was used to check whether the observed OD600 was from live bacterial cells. For this purpose, an equal volume of Christensen's double strength urea broth (that is, containing twice the concentration of all components) was added to the wells after incubation, and the plates were additionally incubated for 4 hours in an oxygen atmosphere at 37° C. During incubation, in wells with urease produced by live bacteria, urea is converted to ammonia and carbon dioxide, changing the pH of the solution and thus the colour of the phenol red indicator contained in the medium (from orange to purple).
(§5) All experiments were performed in triplicate.
The experiments were carried out using the growth curve method as described in Example 3, and the results obtained for two of the compounds tested are shown in FIG. 5. As the water solubility of the compounds tested, with the exception of 2,6-diCl-Pu, is relatively poor, two experiments were carried out: the first with the maximum concentration possible under the experimental conditions in aqueous solution with a small admixture of DMSO, and the second with higher concentrations that led to partial precipitation of the compound.
The antibacterial activity of two compounds, mefloquine (in the form of hydrochloride) and quinine, described in the literature as potent in vitro inhibitors of the PNP enzyme from Plasmodium falciparum (Dziekan et al., 2019), was tested. Using a two-fold serial dilution method in liquid medium (as described in Example 3), the MIC values for mefloquine and quinine were determined against clinical H. pylori strains resistant to MTZ, CLR and MTZ+CLR (M26, M91, M92 and M93), as well as the reference H. pylori strain 26695. Four clinical H. pylori strains isolated from adults, from primary infections (the subjects had never previously been treated against H. pylori infection) were tested. These strains come from the collection of the Department of Microbiology of the Medical University of Wroclaw and were obtained due to collaboration with Prof. Grażyna Gościniak, MD, PhD. […]

H. pylori = details: 2021, cited from earlier work; for MIC (literature): MTZ according to EUCAST, kanamycin according to Irie et al., 1997
[1] = target: T1, AdSS from H. pylori strain 26695 (Helicobacter pylori, UniProt P56137); assay: AdSS enzyme activity assay (adenylosuccinate formation, 280 nm); assay type: biochemical
T1 construct: made in house; host or cells: E. coli BL21 (DE3)
T1 sequence (P56137 1-411): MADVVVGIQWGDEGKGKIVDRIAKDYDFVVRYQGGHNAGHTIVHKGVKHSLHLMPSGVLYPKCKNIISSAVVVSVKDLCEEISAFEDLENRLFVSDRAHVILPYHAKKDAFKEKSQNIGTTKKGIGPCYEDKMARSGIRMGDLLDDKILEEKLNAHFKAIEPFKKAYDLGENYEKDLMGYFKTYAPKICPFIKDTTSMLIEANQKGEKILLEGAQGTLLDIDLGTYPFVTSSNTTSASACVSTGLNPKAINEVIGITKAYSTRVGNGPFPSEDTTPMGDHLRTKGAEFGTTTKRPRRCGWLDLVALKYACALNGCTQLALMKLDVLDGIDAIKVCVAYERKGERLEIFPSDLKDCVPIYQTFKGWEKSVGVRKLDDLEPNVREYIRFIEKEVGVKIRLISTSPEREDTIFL
Protocol: Enzymatic activity measurements were carried out in the similar manner as described in Bubić et al. (2018), at 25° C., in cuvettes with an optical path length of 1 cm containing 1 ml of reaction mixture consisting of 20 mM Hepes/NaOH buffer pH 7.7, 1 mM MgSO4 and the substrates, GTP, IMP and Asp. Saturating concentrations of substrates, namely GTP: 0.06 mM, IMP: 0.15 mM and Asp: 5 mM, were used to measure specific activity. The extinction coefficient at 280 nm of 1.17×10^4 M^−1 cm^−1 (adenylosuccinate formation) was used to calculate the concentration of the product formed (Rudolph and Fromm 1969). One unit (U) of AdSS specific activity is defined as μmol of adenylosuccinate produced per minute at 25° C. Specific activity is expressed as units of enzymatic activity per mg of protein (U/mg).
Inhibition of AdSS by PLP was examined first at saturation with all enzyme substrates and with increasing concentrations of the PLP inhibitor.
To determine the extent to which PLP-induced inactivation develops over time, the enzyme at low concentration (0.022 μM) was incubated at 25° C. in Hepes/NaOH buffer pH 7.0, in the presence of 1.11 mM MgSO4, 5.55 mM Asp, 167 μM IMP and PLP at various concentrations (ranging between 0.03 μM and 8.1 μM). The mixture contained all components necessary for the reaction with the exception of GTP, which, according to Dong and Fromm (1990), competes with PLP. Aliquots of 900 μl were taken from the incubated mixture at specified time intervals, placed in a cuvette and 100 μl of 0.6 mM GTP solution was added to initiate the reaction. The enzyme activity was determined and analysed in the known manner as described above.
Exponential decays were fitted to the data obtained for each concentration and the reaction rate constant of the inactivation process, k, and the residual enzymatic activity observed when the system reached equilibrium, A∞, were obtained as fitting parameters. From these parameters, the half-life of the inactivation process activity, t1/2, was calculated. The dependence of these three parameters on PLP concentration is shown in the lower panel of FIG. 12.
The inhibition of AdSS from H. pylori by pyridoxal (PI-h) was studied at saturation with all enzyme substrates and with increasing concentrations of the inhibitor, similar to that for PLP in Example 10a).

H. pylori strain N6 = assay: Growth curve method / MIC, strain N6; assay type: cell-based, Helicobacter pylori; details: strain N6; concentrations up to 5 mM
Protocol: as §1, §2, §3, §4, §5
(§6) Inhibition by PLP and its metabolic precursors of the growth of H. pylori strains: 26695, N6 and P12 in culture was investigated using the growth curve method as described in Example 3. From these experiments, the minimum inhibitory concentration was determined as the lowest concentration of a compound that inhibits the visible growth of the bacteria, compared to growth in control samples without the tested compounds. All experiments were carried out in triplicate.

H. pylori strain P12 = assay: Growth curve method / MIC, strain P12; assay type: cell-based, Helicobacter pylori; details: strain P12; concentrations up to 5 mM
Protocol: as §1, §2, §3, §4, §5, §6

[2] = test system: H. pylori strain M26 (MTZ + CLR resistant); assay: Growth curve method / MIC, resistant strain M26; assay type: cell-based, Helicobacter pylori; details: for MIC: strain M26, MTZ + CLR resistant
Protocol: as §1, §2, §3, §4, §5
(§7) The antibacterial activity of two compounds, mefloquine (in the form of hydrochloride) and quinine, described in the literature as potent in vitro inhibitors of the PNP enzyme from Plasmodium falciparum (Dziekan et al., 2019), was tested. Using a two-fold serial dilution method in liquid medium (as described in Example 3), the MIC values for mefloquine and quinine were determined against clinical H. pylori strains resistant to MTZ, CLR and MTZ+CLR (M26, M91, M92 and M93), as well as the reference H. pylori strain 26695. Four clinical H. pylori strains isolated from adults, from primary infections (the subjects had never previously been treated against H. pylori infection) were tested. These strains come from the collection of the Department of Microbiology of the Medical University of Wroclaw and were obtained due to collaboration with Prof. Grażyna Gościniak, MD, PhD. The tested compounds belong to organic substances and are soluble in DMSO. The maximum tested concentration of quinine in H. pylori culture was 0.56 mM, and that of mefloquine was 2.25 mM. […] On each occasion, the effect of DMSO alone on the growth of the H. pylori strains tested was also checked. […] Kanamycin was used as a positive control and Mili-Q deionised water as a negative control. All experiments were carried out in triplicate. […]

[3] = test system: H. pylori strain M91 (MTZ + CLR resistant); assay: Growth curve method / MIC, resistant strain M91; assay type: cell-based, Helicobacter pylori; details: for MIC: strain M91, MTZ + CLR resistant
Protocol: as §1, §2, §3, §4, §5, §7

[4] = test system: H. pylori strain M92 (CLR resistant); assay: Growth curve method / MIC, resistant strain M92; assay type: cell-based, Helicobacter pylori; details: for MIC: strain M92, CLR resistant
Protocol: as §1, §2, §3, §4, §5, §7

[5] = test system: H. pylori strain M93 (MTZ resistant); assay: Growth curve method / MIC, resistant strain M93; assay type: cell-based, Helicobacter pylori; details: for MIC: strain M93, MTZ resistant
Protocol: as §1, §2, §3, §4, §5, §7

[6] = Helicobacter pylori, read-out: MIC

SMILES: Cc1ncc([N+](=O)[O-])n1CCO [Metronidazole, metronidazole]
- inhibition at 12 µM (H. pylori strain 26695; Helicobacter pylori, metronidazole 12 μM (2 μg/ml), not maximum solubility, read-out: % inhibition of H. pylori cell cultures): 89 to 92%
- MIC (literature) (H. pylori): 8 ^f μg/ml and 47 μM
- MIC (literature) (H. pylori; listed as MTZ): 47 μM and 8 μg/ml

SMILES: O=CN(O)CC(=O)O [hadacidin]
- inhibition of AdSS from H. pylori [1]: strongly inhibits
- inhibition of proliferation of H. pylori (H. pylori; Wojtyś et al.): does not inhibit the proliferation of bacteria

SMILES: Cc1ncc(CO)c(CN)c1O.Cl.Cl [pyridoxamine dihydrochloride]
- inhibition of bacterial growth (H. pylori strain 26695): no inhibition of bacterial growth
- inhibition of bacterial growth (H. pylori strain N6): no inhibition of bacterial growth
- inhibition of bacterial growth (H. pylori strain P12): no inhibition of bacterial growth

SMILES: Cc1ncc(CO)c(CO)c1O [pyridoxine]
- inhibition of bacterial growth (H. pylori strain 26695): no inhibition of bacterial growth
- inhibition of bacterial growth (H. pylori strain N6): no inhibition of bacterial growth
- inhibition of bacterial growth (H. pylori strain P12): no inhibition of bacterial growth

SMILES: C=C[C@H]1C[N@@]2CC[C@H]1C[C@H]2[C@H](O)c1ccnc2ccc(OC)cc12 [quinine]
- inhibition at 400 µM (H. pylori strain 26695; Helicobacter pylori, quinine 0.4 mM, read-out: percentage of growth inhibition): 91%
- MIC (H. pylori strain 26695; [6]): ≥ 400 µM and ≥ 130 µg/mL
- MIC [2, 6]: ≥ 400 µM and ≥ 130 µg/mL
- inhibition at 400 µM ([2]; Helicobacter pylori, strain M26, quinine 0.4 mM, read-out: percentage of growth inhibition): 87%
- MIC [2]: ≥0.4 mM and (≥130 μg/ml)
- MIC [3, 6]: ≥ 560 µM and ≥ 182 µg/mL
- inhibition at 400 µM ([3]; Helicobacter pylori, strain M91, quinine 0.4 mM, read-out: percentage of growth inhibition): 78%
- inhibition at 560 µM ([3]; Helicobacter pylori, strain M91, quinine 0.56 mM (highest tested), read-out: percentage of growth inhibition): 86%
- MIC [3]: ≥0.56 mM and (≥182 μg/ml)
- MIC [4, 6]: ≥ 400 µM and ≥ 130 µg/mL
- inhibition at 400 µM ([4]; Helicobacter pylori, strain M92, quinine 0.4 mM, read-out: percentage of growth inhibition): 76%
- MIC [4]: ≥0.4 mM and (≥130 μg/ml)
- MIC [5, 6]: ≥ 400 µM and ≥ 130 µg/mL
- inhibition at 400 µM ([5]; Helicobacter pylori, strain M93, quinine 0.4 mM, read-out: percentage of growth inhibition): 91%
- MIC [5]: ≥0.4 mM and (≥130 μg/ml)

— US20250195498A1, “INHIBITOR OF CELLULAR PURINE NUCLEOTIDE SALVAGE PATHWAY ENZYME FOR USE IN THE TREATMENT AND/OR PREVENTION OF HELICOBACTER PYLORI INFECTION AND/OR DISEASE ASSOCIATED WITH SUCH INFECTION AND PHARMACEUTICAL COMPOSITION COMPRISING THE SAME” (UNIWERSYTET WARSZAWSKI, priority 2022, published 2025)
